Here are results for three molecules from paper PMC9409168, “Kinetic Characterization of Cerium and Gallium Ions as Inhibitors of Cysteine Cathepsins L, K, and S” (International Journal of Molecular Sciences, 2022).

Structures are written as SMILES. Like-named read-outs stand apart in the source and are kept apart here.

In series [1] the target is T1, cathepsin S (Homo sapiens, UniProt P25774).
T1 construct: made in house; host or cells: E. coli
Kind of series: Kinetics of cathepsin S inhibition by metal ions, fluorogenic substrate Z-Val-Val-Arg-AMC. Format: biochemical. The following applies: for Mechanism: specific velocity plot / titration.

The target in series [2] is T2, cathepsin L (Homo sapiens, UniProt P07711).
T2 construct: made in house; host or cells: E. coli
The series can be described thus: Kinetics of cathepsin L inhibition by metal ions, fluorogenic substrate Z-Leu-Arg-AMC. The format is biochemical. The following applies: for Mechanism: specific velocity plot.

Series [3] concerns the target T3, cathepsin K (Homo sapiens, UniProt P43235).
T3 construct: made in house; host or cells: E. coli
T3 sequence (P43235 115-329): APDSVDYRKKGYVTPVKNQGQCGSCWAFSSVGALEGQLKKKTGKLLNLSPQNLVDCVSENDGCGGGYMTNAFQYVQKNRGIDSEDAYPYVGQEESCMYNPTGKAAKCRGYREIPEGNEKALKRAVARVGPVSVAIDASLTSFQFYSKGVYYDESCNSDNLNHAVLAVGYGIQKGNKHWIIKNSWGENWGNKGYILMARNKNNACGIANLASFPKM
Kind of series: Kinetics of cathepsin K inhibition by metal ions, fluorogenic substrate Z-Phe-Arg-AMC. Format: biochemical. The following applies: for Mechanism: specific velocity plot / titration.

Series [4] concerns the target T3, cathepsin K. Kind of series: Degradation of insoluble bovine neck ligament elastin by cathepsin K. Conditions: metal ions 0.5 mM. Format: biochemical. The procedure:
(§1) Degradation of insoluble elastin was performed and analyzed according to the protocol in ref. [51]. Briefly, reactions were performed using 200 µL samples, each containing 1 mg of insoluble bovine neck ligament elastin. The enzymes were added to a final concentration of 0.2 µM and the metal ions to a final concentration of 0.5 mM. Samples were incubated at 37 °C for 120 min on an Eppendorf Thermomixer with shaking at 1200 rpm, and the reactions were then stopped by the addition of trichloroacetic acid to a final concentration of 5% (w/V). Samples were cleared by centrifugation and 100 µL of the supernatant was mixed with 1400 µL of 0.2 M sodium borate buffer and 500 µL of a 0.15 mg/mL solution of fluorescamine in acetone. The fluorescence of the samples was measured at an excitation wavelength of λex = 390 nm and emission wavelength of λem = 480 nm. Blank samples without added enzyme were run in parallel and their fluorescence values were subtracted from the samples. Experiments were performed in three replicates of each sample and each experiment was repeated multiple times to assure reproducibility of the results.

The target in series [5] is T1, cathepsin S. Kind of series: Degradation of insoluble bovine neck ligament elastin by cathepsin S. Format: biochemical. The following applies: metal ions 0.5 mM. The procedure: as §1
The target in the next series is cathepsins L, K, and S. Kind of series: Kinetics of inhibition, summary over all tested peptidases. The following applies: range over all peptidases tested (cathepsins L, K, S); read-out: equilibrium dissociation constants (inhibition constants). The format is biochemical, human.
The test system of series [6] is cell growth and metabolism. Set-up: method as in PMID 7929991. Conditions: cited from earlier work.
Series [7] concerns the target T2, cathepsin L. Kind of series: Degradation of insoluble bovine neck ligament elastin by cathepsin L. Format: biochemical. Conditions: metal ions 0.5 mM. The procedure:
as §1

The mark [8] stands for this setting: Z-Val-Val-Arg-AMC, 25 °C, 0.1 M sodium acetate buffer pH 5.5, read-out: KX.
[9] abbreviates: Z-Leu-Arg-AMC, 25 °C, 0.1 M sodium acetate buffer pH 5.5, read-out: KX.
[10] abbreviates: Z-Phe-Arg-AMC, 25 °C, 0.1 M sodium acetate buffer pH 5.5, read-out: KX.
The mark [11] stands for this setting: effect on catalytic rate, general modifier mechanism.
Setting [12] is: effect on substrate affinity, general modifier mechanism.

T2 sequence (P07711 114-333): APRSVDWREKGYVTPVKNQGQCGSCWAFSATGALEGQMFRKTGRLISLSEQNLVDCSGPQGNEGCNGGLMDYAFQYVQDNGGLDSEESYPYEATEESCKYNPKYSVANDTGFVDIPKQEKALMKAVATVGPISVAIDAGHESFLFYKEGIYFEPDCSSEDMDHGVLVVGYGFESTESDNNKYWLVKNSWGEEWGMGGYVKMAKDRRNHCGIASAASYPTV
T1 sequence (P25774 115-331): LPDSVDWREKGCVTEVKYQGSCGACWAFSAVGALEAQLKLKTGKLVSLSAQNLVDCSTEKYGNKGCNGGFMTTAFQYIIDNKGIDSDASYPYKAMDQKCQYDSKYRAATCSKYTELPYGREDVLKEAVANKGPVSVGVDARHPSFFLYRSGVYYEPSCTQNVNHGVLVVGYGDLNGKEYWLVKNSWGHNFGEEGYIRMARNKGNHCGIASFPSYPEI

For `[Pb+2]` [Pb^2+, reference compound], the Ki was 50 ± 5 µM on cathepsin S [1] (setting [8]), 26 ± 12 µM on cathepsin L [2] (setting [9]) and 135 ± 13 µM at cathepsin K [3] (setting [10]). Also, the Mechanism entry at cathepsin S [1], on cathepsin L [2] and at cathepsin K [3] was “Linear specific” each time.
For `[Zn+2]` [Zn^2+], the “inhibition of elastin degradation, comparison in words” value against cathepsin K [4] and against cathepsin S [5] was “strongest inhibitor” each time. Moreover, the Ki at cathepsin S [1] (setting [8]) is 2.9 ± 0.5 µM; on cathepsins L, K, and S, about 1 µM; at cathepsin L [2] (setting [9]) it was 7.5 ± 0.9 µM; on cathepsin K [3] (setting [10]) it was 7.3 ± 0.3 µM. The Mechanism entry on cathepsin S [1], at cathepsin L [2] and at cathepsin K [3] was “Linear specific” in each case.
Regarding `O=[N+]([O-])[O-].O=[N+]([O-])[O-].O=[N+]([O-])[O-].[Ga+3]` [Ga^3+, Ga(NO3)3], the Ki on cathepsin S [1] (setting [8]) is 3.7 ± 0.6 µM; on cathepsin S [1] (read-out: KX), about 4 µM; on cathepsin L [2] (setting [9]), 0.6 ± 0.04 µM; at cathepsin L [2] (read-out: KX) it was 0.6 µM; on cathepsin K [3] (setting [10]), 4.1 ± 0.8 µM; at cathepsin K [3] (read-out: KX) it was about 4 µM. In addition, the figures for the β at cathepsin S [1] (setting [11]) and on cathepsin K [3] (setting [11]) were 3.3 ± 0.5 and 2.4 ± 1.4, respectively. In addition, the α on cathepsin S [1] (setting [12]) turned out to be 11.3 ± 1.0; on cathepsin K [3] (setting [12]), 11.5 ± 1.0. In addition, the figures for the Mechanism result on cathepsin S [1], on cathepsin L [2] and on cathepsin K [3] were “Hyperbolic mixed”, “Linear specific” and “Hyperbolic mixed”, respectively. Besides, the “residual enzyme activity at saturation” value at cathepsin S [1] (synthetic substrate) and at cathepsin K [3] (synthetic substrate) was “about 20%” each time. Also, the “toxic effects on cell growth and metabolism” value in series [6] is given as “no significant toxic effects”. Moreover, the “inhibition of elastin degradation, comparison in words” value on cathepsin L [7] is “most potent inhibitor”.
